Results taken from US9504668B2 (priority 2013, dated 2016).

Tests used:
Experiment in all cases: animal or person
Format in all cases: in vivo
Mice = conditions: Mus musculus, po; for ED50: read-out: MES test ED50
Male Sprague-Dawley rats [1] = conditions: for ED50: Rattus norvegicus, read-out: Prevention ED50; for ED50 / Prevention Peak Time: ip; for Prevention Peak Time / Prevention Protection %: rat, in vivo
Male Sprague-Dawley rats [2] = conditions: Rattus norvegicus, iv, read-out: Intervention Protection %
[3] = read-out: MES test Protection %

Structure (SMILES) | responders at 46 mg/kg (Male Sprague-Dawley rats [2]) [%] | responders at 90 mg/kg (Mice; [3]) [%] | also measured
COCO[C@@H](c1ccccc1Cl)[C@H](C)OC(N)=O [Example 1, 1-(2-chlorophenyl)-(S)-1-methoxymethoxypropyl-(S)-2-carbamate] | 50 |  | ED50 (Mice): 21.6 mg/kg; ED50 (Male Sprague-Dawley rats [1]): 26.6 mg/kg; Prevention Peak Time (Male Sprague-Dawley rats [1]): 0.5 h
CC[C@H](OC(N)=O)[C@@H](OCOC)c1ccccc1Cl [Example 9, 1-(2-chlorophenyl)-(S)-1-methoxymethoxybutyl-(S)-2-carbamate] | 33.3 | 100 | 
COCO[C@@H](c1ccccc1Cl)[C@@H](OC(N)=O)C(C)C [Example 10, 1-(2-chlorophenyl)-(S)-1-methoxymethoxy-3-methyl-butyl-(S)-2-carbamate] | 66.7 | 100 | 
CCCC[C@H](OC(N)=O)[C@@H](OCOC)c1ccccc1Cl [Example 11, 1-(2-chlorophenyl)-(S)-1-methoxymethoxyhexyl-(S)-2-carbamate] | 66.7 | 100 | 
COCO[C@@H](c1ccccc1I)[C@H](C)OC(N)=O [Example 20, 1-(2-iodophenyl)-(S)-1-methoxymethoxypropyl-(S)-2-carbamate] | 16.7 |  | ED50 (Mice): 29.5 mg/kg; ED50 (Male Sprague-Dawley rats [1]): 25.9 mg/kg; Prevention Peak Time (Male Sprague-Dawley rats [1]): 1 h
CC[C@H](OC(N)=O)[C@@H](OCOC)c1ccccc1I [Example 28, 1-(2-iodophenyl)-(S)-1-methoxymethoxybutyl-(S)-2-carbamate] | 33.3 | 33.3 | Prevention Protection % (Male Sprague-Dawley rats [1]): ^a50 (100%)
COCO[C@@H](c1ccccc1I)[C@@H](OC(N)=O)C(C)C [Example 36, 1-(2-iodophenyl)-(S)-1-methoxymethoxy-3-methyl-butyl-(S)-2-carbamate] |  | 100 | 
CCCC[C@H](OC(N)=O)[C@@H](OCOC)c1ccccc1I [Example 44, 1-(2-iodophenyl)-(S)-1-methoxymethoxyhexyl-(S)-2-carbamate] |  | 100 | 
COCO[C@@H](c1cccc(I)c1)[C@H](C)OC(N)=O [Example 52, 1-(3-iodophenyl)-(S)-1-methoxymethoxypropyl-(S)-2-carbamate] | 100 |  | ED50 (Mice): 24.7 mg/kg; Prevention Protection % (Male Sprague-Dawley rats [1]): ^a20 (16.7%)
COCO[C@@H](c1cccc(Cl)c1Cl)[C@H](C)OC(N)=O [Example 68, 1-(2,3-dichlorophenyl)-(S)-1-methoxymethoxypropyl-(S)-2-carbamate] | 40 | 100 | 
COCO[C@H](c1ccccc1Cl)[C@@H](C)OC(N)=O [Example 69, 1-(2-chlorophenyl)-(R)-1-methoxymethoxypropyl-(R)-2-carbamate] |  | 66.6 | 
COCO[C@H](c1ccccc1Cl)[C@H](C)OC(N)=O [Example 71, 1-(2-chlorophenyl)-(R)-1-methoxymethoxypropyl-(S)-2-carbamate] | 100 | 100 | 
COCO[C@@H](c1ccccc1Cl)[C@@H](C)OC(N)=O [Example 72, 1-(2-chlorophenyl)-(S)-1-methoxymethoxypropyl-(R)-2-carbamate] | 50 | 100 | 
COCO[C@H](c1c(Cl)cccc1Cl)[C@@H](C)OC(N)=O [Example 107, 1-(2,6-dichlorophenyl)-(R)-1-methoxymethoxypropyl-(R)-2-carbamate] |  |  | responders at 30 mg/kg (Mice; [3]): 33.3%
CO[C@@H](c1ccccc1Cl)[C@H](C)OC(N)=O [Example 124, 1-(2-chlorophenyl)-(S)-1-methoxypropyl-(S)-2-carbamate] |  |  | ED50 (Mice): 15.6 mg/kg
CO[C@@H](c1ccccc1F)[C@H](C)OC(N)=O [Example 135, 1-(2-fluorophenyl)-(S)-1-methoxypropyl-(S)-2-carbamate] | 100 |  | ED50 (Mice): 12.5 mg/kg; Prevention Protection % (Male Sprague-Dawley rats [1]): ^a20 (16.7%)
CO[C@@H](c1ccccc1I)[C@H](C)OC(N)=O [Example 143, 1-(2-iodophenyl)-(S)-1-methoxypropyl-(S)-2-carbamate] |  |  | ED50 (Mice): 15.7 mg/kg; ED50 (Male Sprague-Dawley rats [1]): 19.6 mg/kg; Prevention Peak Time (Male Sprague-Dawley rats [1]): 1 h; responders at 23 mg/kg (Male Sprague-Dawley rats [2]): 66.7%
CC[C@H](OC(N)=O)[C@@H](OC)c1ccccc1I [Example 151, 1-(2-iodophenyl)-(S)-1-methoxybutyl-(S)-2-carbamate] | 100 |  | ED50 (Mice): 37 mg/kg; Prevention Protection % (Male Sprague-Dawley rats [1]): ^a60 (100%)
CCCC[C@H](OC(N)=O)[C@@H](OC)c1ccccc1I [Example 167, 1-(2-iodophenyl)-(S)-1-methoxyhexyl-(S)-2-carbamate] |  | 33.3 | 
CO[C@@H](c1cccc(I)c1)[C@@H](OC(N)=O)C(C)C [Example 177, 1-(3-iodophenyl)-(S)-1-methoxy-3-methyl-butyl-(S)-2-carbamate] |  | 66.6 | 
CO[C@@H](c1ccc(F)cc1)[C@H](C)OC(N)=O [Example 179, 1-(4-fluorophenyl)-(S)-1-methoxypropyl-(S)-2-carbamate] |  | 33.3 | 
CO[C@@H](c1ccc(Cl)cc1Cl)[C@H](C)OC(N)=O [Example 183, 1-(2,4-dichlorophenyl)-(S)-1-methoxypropyl-(S)-2-carbamate] | 100 | 100 | 

Structure (SMILES) | responders at 46 mg/kg (Male Sprague-Dawley rats [2]) [%] | responders at 90 mg/kg (Mice; [3]) [%] | also measured
CO[C@@H](c1cccc(Cl)c1Cl)[C@H](C)OC(N)=O [Example 191, 1-(2,3-dichlorophenyl)-(S)-1-methoxypropyl-(S)-2-carbamate] | 100 | 100 | 
CO[C@H](c1ccccc1Cl)[C@H](C)OC(N)=O [Example 194, 1-(2-chlorophenyl)-(R)-1-methoxypropyl-(S)-2-carbamate] | 83.3 | 100 | 
CO[C@@H](c1ccccc1Cl)[C@@H](C)OC(N)=O [Example 195, 1-(2-chlorophenyl)-(S)-1-methoxypropyl-(R)-2-carbamate] | 50 | 100 | 
CCCC[C@@H](OC(N)=O)[C@H](OC)c1ccc(F)cc1 [Example 213, 1-(4-fluorophenyl)-(R)-1-methoxyhexyl-(R)-2-carbamate] |  | 33.3 | 
CC[C@@H](OC(N)=O)[C@H](OC)c1ccc(Cl)cc1Cl [Example 232, 1-(2,4-dichlorophenyl)-(R)-1-methoxybutyl-(R)-2-carbamate] |  | 33.3 | 
C[C@@H](OC(N)=O)[C@H](OC(N)=O)c1ccccc1Cl [Example 250, 1-(2-chlorophenyl)-(R)-2-carbamoyloxypropyl-(R)-1-carbamate] |  |  | ED50 (Mice): 46.3 mg/kg; Prevention Protection % (Male Sprague-Dawley rats [1]): ^a60 (16.7%)
CC(OC(N)=O)C(OC(N)=O)c1ccccc1Cl (centres unmarked) [Example 251, 1-(2-chlorophenyl)-2-carbamoyloxypropyl-1-carbamate] |  |  | responders at 100 mg/kg (Mice; [3]): 33.3%
C[C@H](OC(N)=O)[C@@H](OC(N)=O)c1ccccc1I [Example 259, 1-(2-iodophenyl)-(S)-1-carbamoyloxypropyl-(S)-2-carbamate] |  | 66.6 | 
C[C@H](OC(N)=O)[C@@H](OC(N)=O)c1c(Cl)cccc1Cl [Example 267, 1-(2,6-dichlorophenyl)-(S)-1-carbamoyloxypropyl-(S)-2-carbamate] |  |  | responders at 50 mg/kg (Mice; [3]): 16.6%
COCO[C@H](c1cc(Cl)ccc1Cl)[C@@H](C)OC(N)=O [Example 273, 1-(2,5-dichlorophenyl)-(R)-1-methoxymethoxypropyl-(R)-2-carbamate] |  |  | responders at 30 mg/kg (Mice; [3]): 33.3%
COCO[C@@H](C)[C@@H](OC(N)=O)c1ccccc1Cl [Example 274, 1-(2-chlorophenyl)-(S)-2-methoxymethoxypropyl-(S)-1-carbamate] | 33.3 | 100 | 
CO[C@@H](C)[C@@H](OC(N)=O)c1ccccc1Cl [Example 275, 1-(2-chlorophenyl)-(S)-2-methoxypropyl-(S)-1-carbamate] |  | 100 | 
COCO[C@H](COC(N)=O)c1ccccc1I [Example 278, 1-(2-iodophenyl)-(S)-1-methoxymethoxyethyl-2-carbamate] |  |  | responders at 30 mg/kg (Mice; [3]): 33.3%
COCO[C@@H](C)[C@@H](OC(N)=O)c1ccccc1I [Example 282, 1-(2-iodophenyl)-(S)-2-methoxymethoxypropyl-1-carbamate] |  | 33.3 | 
CO[C@@H](C)[C@@H](OC(N)=O)c1ccccc1I [Example 283, 1-(2-iodophenyl)-(S)-2-methoxypropyl-1-carbamate] |  | 100 | 
COCO[C@@H](C)[C@@H](OC(N)=O)c1ccccc1F [Example 284, 1-(2-fluorophenyl)-(S)-2-methoxymethoxypropyl-1-carbamate] |  | 33.3 | 
C[C@H](OC(N)=O)[C@@H](OC(N)=O)c1c(F)cccc1Cl [Example 286, 1-(2-chloro-6-fluorophenyl)-(S)-1-carbamoyloxypropyl-(S)-2-carbamate] |  | 33.3 | 
C[C@@H](OC(N)=O)[C@H](OC(N)=O)c1ccccc1F [Example 289, 1-(2-fluorophenyl)-(R)-1-carbamoyloxypropyl-(R)-2-carbamate] |  |  | ED50 (Mice): 56.2 mg/kg; Prevention Protection % (Male Sprague-Dawley rats [1]): ^a80 (16.7%)
C[C@@H](OC(N)=O)[C@H](OC(N)=O)c1c(Cl)cccc1Cl [Example 290, 1-(2,6-dichlorophenyl)-(R)-1-carbamoyloxypropyl-(R)-2-carbamate] |  |  | responders at 30 mg/kg (Mice; [3]): 33.3%
C[C@@H](OC(N)=O)[C@H](OC(N)=O)c1c(F)cccc1F [Example 292, 1-(2,6-difluorophenyl)-(R)-1-carbamoyloxypropyl-(R)-2-carbamate] |  |  | responders at 56 mg/kg (Mice; [3]): 33.3%
C[C@@H](OC(N)=O)[C@@H](OC(N)=O)c1ccccc1Cl [Example 294, 1-(2-chlorophenyl)-(S)-1-carbamoyloxypropyl-(R)-2-carbamate] |  | 66.6 | 
C[C@H](OC(N)=O)[C@H](OC(N)=O)c1ccccc1Cl [Example 295, 1-(2-chlorophenyl)-(R)-1-carbamoyloxypropyl-(S)-2-carbamate] |  | 100 | 
